# Test results: ChEMBL document CHEMBL1138031, “3D QSAR studies of N-4-arylacryloylpiperazin-1-yl-phenyl-oxazolidinones: a novel class of antibacterial agents” (2006)
# System: Staphylococcus aureus
# Test: Antibacterial activity against Staphylococcus aureus ATCC 25923
# Format: functional
# Settings: for MIC: Staphylococcus aureus, ATCC 25923
Structure (SMILES),MIC,Log (1/C),log(1/C)
CC(=O)NC[C@H]1CN(c2ccc(N3CCN(C(=O)/C=C/c4cccnc4)CC3)c(F)c2)C(=O)O1,1 µg/mL,2.6698,–
CC(=O)NC[C@H]1CN(c2ccc(N3CCN(C(=O)/C=C/c4ccc(C=O)o4)CC3)c(F)c2)C(=O)O1,4 µg/mL,2.0833,–
CC(=O)NC[C@H]1CN(c2ccc(N3CCN(C(=O)/C=C/c4ccc([N+](=O)[O-])s4)CC3)c(F)c2)C(=O)O1,0.25 µg/mL,3.316,–
CC(=O)NC[C@H]1CN(c2ccc(N3CCN(C(=O)/C=C/c4c[nH]c5ccccc45)CC3)c(F)c2)C(=O)O1,2 µg/mL,2.4028,–
CC(=O)NC[C@H]1CN(c2ccc(N3CCN(C(=O)/C=C/c4ccc(COC(C)=O)o4)CC3)c(F)c2)C(=O)O1,8 µg/mL,1.82,–
C/C(S)=N/C[C@H]1CN(c2ccc(N3CCN(C(=O)/C=C/c4ccc(O)cc4)CC3)c(F)c2)C(=O)O1,2 µg/mL,–,2.3967
CC(=O)NC[C@H]1CN(c2ccc(N3CCN(C(=O)CO)CC3)c(F)c2)C(=O)O1 [EPEREZOLID],4 µg/mL,1.9939,–
CC(=O)NC[C@H]1CN(c2ccc(N3CCN(C(=O)/C=C/c4cccs4)CC3)c(F)c2)C(=O)O1,1 µg/mL,2.6745,–
NC(=S)NC[C@H]1CN(c2ccc(N3CCN(C(=O)/C=C/c4c[nH]c5ccccc45)CC3)c(F)c2)C(=O)O1,0.25 µg/mL,3.3318,–
CC(=O)NC[C@H]1CN(c2ccc(N3CCN(C(=O)/C=C/c4ccc([N+](=O)[O-])o4)CC3)c(F)c2)C(=O)O1,0.25 µg/mL,3.3024,–
CC(=O)NC[C@H]1CN(c2ccc(N3CCN(C(=O)/C=C/c4ccc(O)c(O)c4)CC3)c(F)c2)C(=O)O1,16 µg/mL,1.4936,–
C/C(S)=N/C[C@H]1CN(c2ccc(N3CCN(C(=O)/C=C/c4ccncc4)CC3)c(F)c2)C(=O)O1,0.5 µg/mL,2.9855,–
C/C(S)=N/C[C@H]1CN(c2ccc(N3CCN(C(=O)/C=C/c4ccccc4)CC3)c(F)c2)C(=O)O1,0.25 µg/mL,3.2857,–
C/C(S)=N/C[C@H]1CN(c2ccc(N3CCN(C(=O)/C=C/c4cccs4)CC3)c(F)c2)C(=O)O1,0.25 µg/mL,3.2911,–
CC(=O)NC[C@H]1CN(c2ccc(N3CCN(C(=O)/C=C/c4ccncc4)CC3)c(F)c2)C(=O)O1,2 µg/mL,2.3688,–
NC(=S)NC[C@H]1CN(c2ccc(N3CCN(C(=O)/C=C/c4cccs4)CC3)c(F)c2)C(=O)O1,0.5 µg/mL,2.9909,–
CC(=O)NC[C@H]1CN(c2ccc(N3CCN(C(=O)/C=C/c4ccc(O)cc4)CC3)c(F)c2)C(=O)O1,2 µg/mL,2.3825,–
NC(=S)NC[C@H]1CN(c2ccc(N3CCN(C(=O)/C=C/c4ccccc4)CC3)c(F)c2)C(=O)O1,1 µg/mL,2.6845,–
CC(C)(C)C(=O)Oc1ccc(/C=C/C(=O)N2CCN(c3ccc(N4C[C@H](CNC(N)=S)OC4=O)cc3F)CC2)cc1,> 16 µg/mL,1.5621,–
CC(=O)NC[C@H]1CN(c2ccc(N3CCN(C(=O)/C=C/c4ccc(CO)o4)CC3)c(F)c2)C(=O)O1,4 µg/mL,2.0851,–
CC(=O)NC[C@H]1CN(c2ccc(N3CCN(C(=O)/C=C/c4ccc[nH]4)CC3)c(F)c2)C(=O)O1,2 µg/mL,2.3575,–
CC(=O)NC[C@H]1CN(c2ccc(N3CCN(C/C=C/c4ccc([N+](=O)[O-])o4)CC3)c(F)c2)C(=O)O1,2 µg/mL,2.387,–
NC(=S)NC[C@H]1CN(c2ccc(N3CCN(C(=O)/C=C/c4ccncc4)CC3)c(F)c2)C(=O)O1,4 µg/mL,2.0833,–
CC(=O)NC[C@H]1CN(c2ccc(N3CCN(C(=O)/C=C/c4ccccc4)CC3)c(F)c2)C(=O)O1,4 µg/mL,2.0669,–
CC(=O)NC[C@H]1CN(c2ccc(N3CCN(C(=O)/C=C/c4cccc(O)c4)CC3)c(F)c2)C(=O)O1,2 µg/mL,2.3825,–

# Continued, in another order:
MIC,Structure (SMILES),Log (1/C),log(1/C)
0.5 µg/mL,C/C(S)=N/C[C@H]1CN(c2ccc(N3CCN(C(=O)/C=C/c4c[nH]c5ccccc45)CC3)c(F)c2)C(=O)O1,3.0184,–
> 16 µg/mL,CC(=O)NC[C@H]1CN(c2ccc(N3CCN(C(=O)/C=C/c4ccc(F)c(F)c4)CC3)c(F)c2)C(=O)O1,1.4971,–
2 µg/mL,CC(=O)NC[C@H]1CN(c2ccc(N3CCN(C(=O)/C=C/c4ccco4)CC3)c(F)c2)C(=O)O1,2.3584,–
4 µg/mL,CC(=O)NC[C@H]1CN(c2ccc(N3CCN(C(=O)/C=C/c4ccc(C)o4)CC3)c(F)c2)C(=O)O1,2.0706,–
0.5 µg/mL,C/C(S)=N/C[C@H]1CN(c2ccc(N3CCN(C(=O)/C=C/c4ccco4)CC3)c(F)c2)C(=O)O1,2.9755,–
> 16 µg/mL,CC(=O)NC[C@H]1CN(c2ccc(N3CCN(C(=O)/C=C/c4ccc(C(=O)O)o4)CC3)c(F)c2)C(=O)O1,1.4953,–
1 µg/mL,NC(=S)NC[C@H]1CN(c2ccc(N3CCN(C(=O)/C=C/c4ccc(O)cc4)CC3)c(F)c2)C(=O)O1,2.6986,–
0.25 µg/mL,C/C(S)=N/C[C@H]1CN(c2ccc(N3CCN(C(=O)/C=C/c4ccc([N+](=O)[O-])o4)CC3)c(F)c2)C(=O)O1,3.316,–
1 µg/mL,NC(=S)NC[C@H]1CN(c2ccc(N3CCN(C(=O)/C=C/c4ccco4)CC3)c(F)c2)C(=O)O1,2.6754,–
> 16 µg/mL,CC(=O)NC[C@H]1CN(c2ccc(N3CCN(C(=O)/C=C/c4ccc(OC(=O)C(C)(C)C)cc4)CC3)c(F)c2)C(=O)O1,1.5492,–
2 µg/mL,CC(=O)NC[C@H]1CN(c2ccc(N3CCN(C(=O)/C=C/c4ccoc4)CC3)c(F)c2)C(=O)O1,2.3584,–
4 µg/mL,CC(=O)NC[C@H]1CN(c2ccc(N3CCN(C/C=C/c4ccco4)CC3)c(F)c2)C(=O)O1,2.0439,–
8 µg/mL,CC(=O)NC[C@H]1CN(c2ccc(N3CCN(C(=O)/C=C/c4ccc(OS(C)(=O)=O)cc4)CC3)c(F)c2)C(=O)O1,1.8456,–
2 µg/mL,CC(=O)NC[C@H]1CN(c2ccc(N3CCN(C(=O)/C=C/c4ccsc4)CC3)c(F)c2)C(=O)O1,2.3735,–
